Test results as given in patent US20100267561A1, “HERBICIDAL PYRIDAZINONE DERIVATIVES” (priority 2007, published 2010).

Key:
Format in all cases: in vivo
[1] = system: lambsquarters (Chenopodium album); assay: Test B pre-/postemergence plant response; conditions: for Lambsquarters plant response rating: 8 g ai/ha
Source text: (§1) Seeds of plant species selected from blackgrass (Alopecurus myosuroides), downy bromegrass (Bromus tectorum), green foxtail (Setaria viridis), Italian ryegrass (Lolium multiflorum), wheat (Triticum aestivum), wild oat (Avena fatua), catchweed bedstraw (Galium aparine), bermudagrass (Cynodon dactylon), surinam grass (Brachiaria decumbens), cocklebur (Xanthium strumarium), corn (Zea mays), large crabgrass (Digitaria sanguinalis), woolly cupgrass (Eriochloa villosa), giant foxtail (Setaria faberii), goosegrass (Eleusine indica), johnsongrass (Sorghum halepense), kochia (Kochia scoparia), lambsquarters (Chenopodium album), morningglory (Ipomoea coccinea), eastern black (E.B.) nightshade (Solanum ptycanthum), yellow nutsedge (Cyperus esculentus), pigweed (Amaranthus retroflexus), common ragweed (Ambrosia elation), Russian thistle (Salsola iberica), soybean (Glycine max), common (oilseed) sunflower (Helianthus annuus), and velvetleaf (Abutilon theophrasti) were planted and treated preemergence with test chemicals formulated in a non-phytotoxic solvent mixture which included a surfactant.
(§2) At the same time, plants selected from these crop and weed species and also winter barley (Hordeum vulgare), canarygrass (Phalaris minor), chickweed (Stellaria media) and windgrass (Apera spica-venti) were treated with postemergence applications of some of the test chemicals formulated in the same manner. Plants ranged in height from 2 to 18 cm (1- to 4-leaf stage) for postemergence treatments.
(§3) Plant species in the flooded paddy test consisted of rice (Oryza sativa), umbrella sedge (Cyperus difformis), ducksalad (Heteranthera limosa) and barnyardgrass (Echinochloa crus-galli) grown to the 2-leaf stage for testing. At time of treatment, test pots were flooded to 3 cm above the soil surface, treated by application of test compounds directly to the paddy water, and then maintained at that water depth for the duration of the test. Treated plants and controls were maintained in a greenhouse for 13 to 15 days, after which time all species were compared to controls and visually evaluated. Plant response ratings, summarized in Table B, are based on a scale of 0 to 100 where 0 is no effect and 100 is complete control. A dash (-) response means no test result.

[2] = system: bermudagrass (Cynodon dactylon); assay: Test B pre-/postemergence plant response; conditions: for Bermudagrass plant response rating: 8 g ai/ha
Source text: as §1, §2, §3

[3] = system: pigweed (Amaranthus retroflexus); assay: Test B pre-/postemergence plant response; conditions: for Pigweed plant response rating: 8 g ai/ha
Source text: as §1, §2, §3

[4] = system: giant foxtail (Setaria faberii); assay: Test B pre-/postemergence plant response; conditions: for Foxtail, Giant plant response rating: 8 g ai/ha
Source text: as §1, §2, §3

[5] = system: downy bromegrass (Bromus tectorum); assay: Test B pre-/postemergence plant response; conditions: for Bromegrass, Downy plant response rating: 8 g ai/ha
Source text: as §1, §2, §3

[6] = system: morningglory (Ipomoea coccinea); assay: Test B pre-/postemergence plant response; conditions: for Morningglory plant response rating: 8 g ai/ha
Source text: as §1, §2, §3

soybean (Glycine max) = assay: Test B pre-/postemergence plant response; conditions: for Soybean plant response rating: 8 g ai/ha
Source text: as §1, §2, §3

[7] = system: surinam grass (Brachiaria decumbens); assay: Test B pre-/postemergence plant response; conditions: for Surinam Grass plant response rating: 8 g ai/ha
Source text: as §1, §2, §3

[8] = system: wheat (Triticum aestivum); assay: Test B pre-/postemergence plant response; conditions: for Wheat plant response rating: 8 g ai/ha
Source text: as §1, §2, §3

[9] = system: common (oilseed) sunflower (Helianthus annuus); assay: Test B pre-/postemergence plant response; conditions: Preemergence
Source text: as §1, §2, §3

[10] = system: Italian ryegrass (Lolium multiflorum); assay: Test B pre-/postemergence plant response; conditions: for Ryegrass, Italian plant response rating: 8 g ai/ha
Source text: as §1, §2, §3

[11] = system: chickweed (Stellaria media); assay: Test B postemergence plant response; conditions: for Plant response rating, Chickweed: Postemergence
In short: (§4)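 Test compounds were applied postemergence to plants 2 to 18 cm tall (1- to 4-leaf stage). After 13 to 15 days in a greenhouse, each species was visually compared with untreated controls and rated 0 (no effect) to 100 (complete control).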

[12] = system: canarygrass (Phalaris minor); assay: Test B postemergence plant response; conditions: for Plant response rating, Canarygrass: Postemergence
In short: as §4

[13] = system: windgrass (Apera spica-venti); assay: Test B postemergence plant response; conditions: for Plant response rating, Windgrass: Postemergence
In short: as §4

[14] = system: winter barley (Hordeum vulgare); assay: Test B postemergence plant response; conditions: for Plant response rating, Barley: Postemergence
In short: as §4

[15] = Postemergence, 16 g ai/ha, scale 0 to 100
[16] = Postemergence, 31 g ai/ha, scale 0 to 100, 0 no effect, 100 complete control
[17] = Postemergence, 62 g ai/ha, scale 0 to 100
[18] = Preemergence, 16 g ai/ha, scale 0 to 100 (0 no effect, 100 complete control)
[19] = Preemergence, 31 g ai/ha, 0 to 100 scale, 0 no effect, 100 complete control
[20] = Preemergence, 62 g ai/ha, scale 0 to 100
[21] = 8 g ai/ha, postemergence, 0-100 scale
[22] = 31 g ai/ha, scale 0 to 100, 0 no effect, 100 complete control

CCc1cc(-c2ccc(F)cc2)nn1-c1c(O)cnn(C)c1=O [Compound 25]
Lambsquarters plant response rating ([1]; postemergence, 0-100 scale): 0
Plant response rating, Lambsquarters [1, 15]: 0
Plant response rating, Lambsquarters [1, 16]: 0
Plant response rating, Lambsquarters [1, 17]: 10
Plant response rating, Lambsquarters [1, 18]: 0
Plant response rating, Lambsquarters [1, 19]: 0
Plant response rating, Lambsquarters [1, 20]: 40
Lambsquarters plant response rating ([1]; Preemergence, scale 0 to 100): 0
Bermudagrass plant response rating ([2]; postemergence, 0-100 scale): 0
Plant response rating, Bermudagrass [2, 15]: 0
Plant response rating, Bermudagrass [2, 16]: 60
Plant response rating, Bermudagrass [2, 17]: 60
Bermudagrass plant response rating ([2]; Preemergence, scale 0 to 100 (0 no effect, 100 complete control)): 0
Plant response rating, Bermudagrass [2, 18]: 70
Plant response rating, Bermudagrass [2, 19]: 80
Plant response rating, Bermudagrass [2, 20]: 100
Pigweed plant response rating ([3]; postemergence, 0-100 scale): 0
Plant response rating, Pigweed [3, 15]: 0
Plant response rating, Pigweed [3, 16]: 0
Plant response rating, Pigweed [3, 17]: 10
Plant response rating, Pigweed [3, 18]: 0
Plant response rating, Pigweed [3, 19]: 0
Plant response rating, Pigweed [3, 20]: 80
Pigweed plant response rating ([3]; Preemergence, scale 0 to 100): 0
Foxtail, Giant plant response rating ([4]; postemergence, 0-100 scale): 70
Plant response rating, Foxtail, Giant [4, 15]: 85
Plant response rating, Foxtail, Giant [4, 16]: 85
Plant response rating, Foxtail, Giant [4, 17]: 95
Plant response rating, Foxtail, Giant [4, 18]: 60
Plant response rating, Foxtail, Giant [4, 19]: 90
Plant response rating, Foxtail, Giant [4, 20]: 100
Foxtail, Giant plant response rating ([4]; Preemergence, scale 0 to 100): 50
Bromegrass, Downy plant response rating ([5]; postemergence, 0-100 scale): 0
Plant response rating, Bromegrass, Downy [5, 15]: 0
Plant response rating, Bromegrass, Downy [5, 16]: 10
Plant response rating, Bromegrass, Downy [5, 17]: 15
Plant response rating, Bromegrass, Downy [5, 18]: 0
Plant response rating, Bromegrass, Downy [5, 19]: 0
Plant response rating, Bromegrass, Downy [5, 20]: 0
Bromegrass, Downy plant response rating ([5]; Preemergence, scale 0 to 100): 0
Morningglory plant response rating ([6]; postemergence, 0-100 scale): 0
Plant response rating, Morningglory [6, 15]: 0
Plant response rating, Morningglory [6, 16]: 0
Plant response rating, Morningglory [6, 17]: 20
Plant response rating, Morningglory [6, 18]: 0
Plant response rating, Morningglory [6, 19]: 0
Plant response rating, Morningglory [6, 20]: 0
Morningglory plant response rating ([6]; Preemergence, scale 0 to 100): 0
Soybean plant response rating (soybean (Glycine max); postemergence, 0-100 scale): 0
Plant response rating, Soybean (soybean (Glycine max); [15]): 0
Plant response rating, Soybean (soybean (Glycine max); [16]): 0
Plant response rating, Soybean (soybean (Glycine max); [17]): 0
Plant response rating, Soybean (soybean (Glycine max); [18]): 0
Plant response rating, Soybean (soybean (Glycine max); [19]): 0
Plant response rating, Soybean (soybean (Glycine max); [20]): 0
Soybean plant response rating (soybean (Glycine max); Preemergence, scale 0 to 100): 0
Surinam Grass plant response rating ([7]; postemergence, 0-100 scale): 50
Plant response rating, Surinam Grass [7, 15]: 60
Plant response rating, Surinam Grass [7, 16]: 95
Plant response rating, Surinam Grass [7, 17]: 100
Plant response rating, Surinam Grass [7, 18]: 85
Plant response rating, Surinam Grass [7, 19]: 85
Plant response rating, Surinam Grass [7, 20]: 100
Surinam Grass plant response rating ([7]; Preemergence, scale 0 to 100): 50
Wheat plant response rating ([8]; postemergence, 0-100 scale): 0
Plant response rating, Wheat [8, 15]: 0
Plant response rating, Wheat [8, 16]: 0
Plant response rating, Wheat [8, 17]: 0
Plant response rating, Wheat [8, 18]: 0
Plant response rating, Wheat [8, 19]: 0
Plant response rating, Wheat [8, 20]: 15
Wheat plant response rating ([8]; Preemergence, scale 0 to 100): 0
Plant response rating, Sunflower ([9]; 16 g ai/ha, scale 0 to 100 (0 no effect, 100 complete control)): 0
Plant response rating, Sunflower ([9]; 31 g ai/ha, 0 to 100 scale, 0 no effect, 100 complete control): 0
Plant response rating, Sunflower ([9]; 62 g ai/ha, scale 0 to 100): 0
Sunflower plant response rating ([9]; 8 g ai/ha, scale 0 to 100): 0
Ryegrass, Italian plant response rating ([10]; postemergence, 0-100 scale): 60
Plant response rating, Ryegrass, Italian [10, 15]: 80
Plant response rating, Ryegrass, Italian [10, 16]: 85
Plant response rating, Ryegrass, Italian [10, 17]: 95
Plant response rating, Ryegrass, Italian [10, 18]: 50
Plant response rating, Ryegrass, Italian [10, 19]: 90
Plant response rating, Ryegrass, Italian [10, 20]: 100
Ryegrass, Italian plant response rating ([10]; Preemergence, scale 0 to 100): 50
Chickweed plant response rating [11, 21]: 0
Plant response rating, Chickweed ([11]; 16 g ai/ha, scale 0 to 100): 0
Plant response rating, Chickweed [11, 22]: 0
Plant response rating, Chickweed ([11]; 62 g ai/ha, scale 0 to 100): 0
Canarygrass plant response rating [12, 21]: 0
Plant response rating, Canarygrass ([12]; 16 g ai/ha, scale 0 to 100): 0
Plant response rating, Canarygrass [12, 22]: 0
Plant response rating, Canarygrass ([12]; 62 g ai/ha, scale 0 to 100): 10
Windgrass plant response rating [13, 21]: 40
Plant response rating, Windgrass ([13]; 16 g ai/ha, scale 0 to 100): 60
Plant response rating, Windgrass [13, 22]: 60
Plant response rating, Windgrass ([13]; 62 g ai/ha, scale 0 to 100): 98
Barley plant response rating [14, 21]: 0
Plant response rating, Barley ([14]; 16 g ai/ha, scale 0 to 100, 0 no effect, 100 complete control): 0
Plant response rating, Barley [14, 22]: 0
Plant response rating, Barley ([14]; 62 g ai/ha, scale 0 to 100): 0
